# Test results reported in US11331299B2, “Medicinal use of serrulatane diterpenes” (The University of Sydney, priority 2016, dated 2022).
# pEC50, pIC50: −log10 of the molar value. Where two headings read alike, the source gives them in different places.
# Test system: 280 human cancer cell lines
# Test: OncoPanel cell proliferation assay (10-day)
# Assay type: cell-based
# Conditions: Homo sapiens; for pEC50: read-out: Cell Count EC50; for GI50: read-out: Cell Count GI50; for pIC50: read-out: Cell Count IC50
# [1] = Caov-3, CaOV3, Female GU - Ovary
# [2] = ChaGo-K-1, ChaGoK1, Lung - NSCLC
# [3] = D341 Med, CNS - Medulloblastoma
# [4] = Detroit 562, Detroit 562, Head and Neck
# [5] = DoTc2-4510, DoTc2 4510, Lymphoma
# [6] = G292, G-292, clone A141B1, Soft Tissue - Osteosarcoma
# [7] = HEL 92.1.7, HEL-92-1-7, Leukemia
# [8] = HOS, Soft Tissue - Osteosarcoma
# [9] = HT-1080, HT-1080, Soft Tissue - Sarcoma
# [10] = HUH-6-clone5, HUH-6 Clone 5, Liver
# [11] = Hs 821.T, Soft Tissue - Sarcoma
# [12] = Hs 888.Sk, Soft Tissue - Osteosarcoma
compound,measurement,setting,value
"CC(C)=CCC[C@H](C)[C@@H]1CC[C@@H](C)c2c1cc(C)c(O)c2O [Compound 4, 7,8-dihydroxyserrulat-14-ene]",pEC50,[1],4.99
same,GI50,[1],10.2 µM
same,pIC50,[1],4.99
same,pEC50,"Capan-2, Capan-2, Pancreas",4.61
same,GI50,"Capan-2, Capan-2, Pancreas",24.7 µM
same,pIC50,"Capan-2, Capan-2, Pancreas",4.61
same,pEC50,[2],5.05
same,GI50,[2],8.82 µM
same,pIC50,[2],5.05
same,pEC50,[3],5.07
same,GI50,[3],8.4 µM
same,pIC50,[3],5.07
same,pEC50,"DB, Lymphoma",5.41
same,GI50,"DB, Lymphoma",3.84 µM
same,pIC50,"DB, Lymphoma",5.41
same,pEC50,"DBTRG-05MG, CNS - Glioma",4.75
same,GI50,"DBTRG-05MG, CNS - Glioma",17.4 µM
same,pIC50,"DBTRG-05MG, CNS - Glioma",4.75
same,pEC50,"DK-MG, CNS - Glioma",4.76
same,GI50,"DK-MG, CNS - Glioma",16.4 µM
same,pIC50,"DK-MG, CNS - Glioma",4.76
same,pEC50,"DLD-1, DLD-1, Colon",4.80
same,GI50,"DLD-1, DLD-1, Colon",15.7 µM
same,pIC50,"DLD-1, DLD-1, Colon",4.80
same,pEC50,"DMS-53, DMS53, Lung - SCLC",5.05
same,GI50,"DMS-53, DMS53, Lung - SCLC",8.6 µM
same,pIC50,"DMS-53, DMS53, Lung - SCLC",5.05
same,pEC50,"DMS-114, DMS114, Lung - SCLC",4.94
same,GI50,"DMS-114, DMS114, Lung - SCLC",11.4 µM
same,pIC50,"DMS-114, DMS114, Lung - SCLC",4.94
same,pEC50,"DOHH-2, DOHH-2, Lymphoma",5.65
same,GI50,"DOHH-2, DOHH-2, Lymphoma",2.24 µM
same,pIC50,"DOHH-2, DOHH-2, Lymphoma",5.65
same,pEC50,"DU-145, DU145, Prostate",4.74
same,GI50,"DU-145, DU145, Prostate",18.1 µM
same,pIC50,"DU-145, DU145, Prostate",4.74
same,pEC50,"Daoy, CNS - Medulloblastoma",5.50
same,GI50,"Daoy, CNS - Medulloblastoma",3.19 µM
same,pIC50,"Daoy, CNS - Medulloblastoma",5.50
same,pEC50,"Daudi, Lymphoma",5.64
same,GI50,"Daudi, Lymphoma",2.28 µM
same,pIC50,"Daudi, Lymphoma",5.64
same,pEC50,[4],4.60
same,GI50,[4],25 µM
same,pIC50,[4],4.60
same,pEC50,[5],5.03
same,GI50,[5],9.09 µM
same,pIC50,[5],5.03
same,pEC50,"EB2, Lymphoma",5.08
same,GI50,"EB2, Lymphoma",8.32 µM
same,pIC50,"EB2, Lymphoma",5.08
same,pEC50,"EB-3, Lymphoma",5.41
same,GI50,"EB-3, Lymphoma",3.93 µM
same,pIC50,"EB-3, Lymphoma",5.41
same,pEC50,"EFM-19, EFM-19, Breast",4.92
same,GI50,"EFM-19, EFM-19, Breast",11.3 µM
same,pIC50,"EFM-19, EFM-19, Breast",4.92
same,pEC50,"EM-2, Leukemia",5.40
same,GI50,"EM-2, Leukemia",4 µM
same,pIC50,"EM-2, Leukemia",5.40
same,pEC50,"FaDu, Head and Neck",5.08
same,GI50,"FaDu, Head and Neck",8.28 µM
same,pIC50,"FaDu, Head and Neck",5.08
same,pEC50,[6],5.21
same,GI50,[6],6.07 µM
same,pIC50,[6],5.20
same,pEC50,"G-361, G-361, Skin (Melanoma)",4.86
same,GI50,"G-361, G-361, Skin (Melanoma)",13.8 µM
same,pIC50,"G-361, G-361, Skin (Melanoma)",4.86
same,pEC50,"G-401, G-401, Kidney",5.09
same,GI50,"G-401, G-401, Kidney",8.05 µM
same,pIC50,"G-401, G-401, Kidney",5.09
same,pEC50,"GA-10, GA-10, Lymphoma",5.91
same,GI50,"GA-10, GA-10, Lymphoma",1.23 µM
same,pIC50,"GA-10, GA-10, Lymphoma",5.91
same,pEC50,"H4, CNS - Glioma",4.89
same,GI50,"H4, CNS - Glioma",13 µM
same,pIC50,"H4, CNS - Glioma",4.89
same,pEC50,"HCT-15, HCT-15, Colon",4.87
same,GI50,"HCT-15, HCT-15, Colon",13.4 µM
same,pIC50,"HCT-15, HCT-15, Colon",4.87
same,pEC50,"HCT-116, HCT-116, Colon",4.99
same,GI50,"HCT-116, HCT-116, Colon",10.3 µM
same,pIC50,"HCT-116, HCT-116, Colon",4.99
same,pEC50,"HEC-1-A, Female GU - Uterus",4.91
same,GI50,"HEC-1-A, Female GU - Uterus",12.2 µM
same,pIC50,"HEC-1-A, Female GU - Uterus",4.91
same,pEC50,[7],5.39
same,GI50,[7],4.05 µM
same,pIC50,[7],5.39
same,pEC50,"HLE, Liver",5.14
same,GI50,"HLE, Liver",7.15 µM
same,pIC50,"HLE, Liver",5.14
same,pEC50,"HLF, Liver",5.06
same,GI50,"HLF, Liver",8.7 µM
same,pIC50,"HLF, Liver",5.06
same,pEC50,"HMCB, Skin (Melanoma)",5.02
same,GI50,"HMCB, Skin (Melanoma)",9.38 µM
same,pIC50,"HMCB, Skin (Melanoma)",5.02
same,pEC50,[8],5.51
same,GI50,[8],3.08 µM
same,pIC50,[8],5.51
same,pEC50,"HPAF-II, Pancreas",4.91
same,GI50,"HPAF-II, Pancreas",12.4 µM
same,pIC50,"HPAF-II, Pancreas",4.90
same,pEC50,"HT1197, HT-1197, Bladder",4.81
same,GI50,"HT1197, HT-1197, Bladder",15.2 µM
same,pIC50,"HT1197, HT-1197, Bladder",4.81
same,pEC50,"HT, Lymphoma",5.35
same,GI50,"HT, Lymphoma",4.46 µM
same,pIC50,"HT, Lymphoma",5.35
same,pEC50,"HT-3, Female GU - Cervix",4.84
same,GI50,"HT-3, Female GU - Cervix",14.3 µM
same,pIC50,"HT-3, Female GU - Cervix",4.84
same,pEC50,"HT-29, HT-29, Colon",4.77
same,GI50,"HT-29, HT-29, Colon",17 µM
same,pIC50,"HT-29, HT-29, Colon",4.77
same,pEC50,[9],5.35
same,GI50,[9],4.42 µM
same,pIC50,[9],5.35
same,pEC50,"HT-1376, HT1376, Bladder",4.85
same,GI50,"HT-1376, HT1376, Bladder",13.8 µM
same,pIC50,"HT-1376, HT1376, Bladder",4.85
same,pEC50,[10],5.02
same,GI50,[10],9.46 µM
same,pIC50,[10],5.02
same,pEC50,"HeLa, Female GU - Cervix",4.68
same,GI50,"HeLa, Female GU - Cervix",21.1 µM
same,pIC50,"HeLa, Female GU - Cervix",4.68
same,pEC50,"HepG2, HepG2, Liver",4.59
same,GI50,"HepG2, HepG2, Liver",25.6 µM
same,pIC50,"HepG2, HepG2, Liver",4.59
same,pEC50,"Hs 229.T, Lung - NSCLC",4.59
same,GI50,"Hs 229.T, Lung - NSCLC",25.2 µM
same,pIC50,"Hs 229.T, Lung - NSCLC",4.58
same,pEC50,"Hs 294T, Skin (Melanoma)",5.08
same,GI50,"Hs 294T, Skin (Melanoma)",8.23 µM
same,pIC50,"Hs 294T, Skin (Melanoma)",5.08
same,pEC50,"Hs 445, Hs 445, Lymphoma",5.24
same,GI50,"Hs 445, Hs 445, Lymphoma",5.74 µM
same,pIC50,"Hs 445, Hs 445, Lymphoma",5.24
same,pEC50,"Hs 611.T, Lymphoma",5.29
same,GI50,"Hs 611.T, Lymphoma",5.05 µM
same,pIC50,"Hs 611.T, Lymphoma",5.29
same,pEC50,"Hs 683, Hs 683, CNS - Glioma",4.61
same,GI50,"Hs 683, Hs 683, CNS - Glioma",24.3 µM
same,pIC50,"Hs 683, Hs 683, CNS - Glioma",4.61
same,pEC50,"Hs 688(A).T, Skin (Melanoma)",5.13
same,GI50,"Hs 688(A).T, Skin (Melanoma)",6.88 µM
same,pIC50,"Hs 688(A).T, Skin (Melanoma)",5.11
same,pEC50,"Hs746T, HS 746T, Stomach",4.70
same,GI50,"Hs746T, HS 746T, Stomach",17.1 µM
same,pIC50,"Hs746T, HS 746T, Stomach",4.70
same,pEC50,"Hs766T, Hs 766T, Pancreas",5.03
same,GI50,"Hs766T, Hs 766T, Pancreas",9.08 µM
same,pIC50,"Hs766T, Hs 766T, Pancreas",5.03
same,pEC50,[11],4.90
same,GI50,[11],9.99 µM
same,pIC50,[11],4.89
same,pEC50,[12],4.91
same,GI50,[12],12.1 µM
same,pIC50,[12],4.90
same,pEC50,"Hs 934.T, Skin (Melanoma)",4.95
same,GI50,"Hs 934.T, Skin (Melanoma)",10.2 µM
same,pIC50,"Hs 934.T, Skin (Melanoma)",4.94
same,pEC50,"Hs 936.T(C1), Skin (Melanoma)",5.04
same,GI50,"Hs 936.T(C1), Skin (Melanoma)",10.2 µM
same,pIC50,"Hs 936.T(C1), Skin (Melanoma)",4.98
same,pEC50,"Hs-578T, Hs 578T, Breast",4.82
same,GI50,"Hs-578T, Hs 578T, Breast",14.9 µM
same,pIC50,"Hs-578T, Hs 578T, Breast",4.82
same,pEC50,"HuCCT-1, HuCCT1, Liver",4.61
same,GI50,"HuCCT-1, HuCCT1, Liver",24.8 µM
same,pIC50,"HuCCT-1, HuCCT1, Liver",4.61
same,pEC50,"HuP-T4, HuP-T4, Pancreas",4.86
same,GI50,"HuP-T4, HuP-T4, Pancreas",13.6 µM
same,pIC50,"HuP-T4, HuP-T4, Pancreas",4.86
same,pEC50,"J82, Bladder",5.21
same,GI50,"J82, Bladder",6.09 µM
same,pIC50,"J82, Bladder",5.21
same,pEC50,"JAR, Placenta",5.19
same,GI50,"JAR, Placenta",6.49 µM
same,pIC50,"JAR, Placenta",5.19
same,pEC50,"JEG-3, JEG-3, Placenta",5.19
same,GI50,"JEG-3, JEG-3, Placenta",6.48 µM
same,pIC50,"JEG-3, JEG-3, Placenta",5.19
same,pEC50,"JIYOYE, Lymphoma",5.45
same,GI50,"JIYOYE, Lymphoma",3.55 µM
same,pIC50,"JIYOYE, Lymphoma",5.45
same,pEC50,"JeKo-1, JeKo-1, Lymphoma",5.41
same,GI50,"JeKo-1, JeKo-1, Lymphoma",3.91 µM
same,pIC50,"JeKo-1, JeKo-1, Lymphoma",5.41
same,pEC50,"Jurkat, Leukemia",5.44
same,GI50,"Jurkat, Leukemia",3.58 µM
same,pIC50,"Jurkat, Leukemia",5.44
same,pEC50,"K562, K562, Leukemia",4.91
same,GI50,"K562, K562, Leukemia",12.2 µM
same,pIC50,"K562, K562, Leukemia",4.91
same,pEC50,"KATO III, Stomach",4.96
same,GI50,"KATO III, Stomach",11.1 µM
same,pIC50,"KATO III, Stomach",4.95
same,pEC50,"KHOS-240S, Soft Tissue - Osteosarcoma",5.30
